Laboratory results from patent publication US20120029027A1, “N-[(6-AZA-BICYCLO[3.2.1]OCT-5-YL)-ARYL-METHYL]-HETEROBENZAMIDE DERIVATIVES, PREPARATION THEREOF, AND THERAPEUTIC USE OF SAME” (SANOFI, priority 2009, published 2012).
Counter-ions that a name gives are not always drawn.

Target: T1, native human transporter GlyT1 (Homo sapiens, UniProt P48067)
T1 construct: expressing the native human transporter GlyT1; endogenous in cells; host or cells: SK-N-MC (human neuroepithelial cells)
T1 sequence (P48067 1-706): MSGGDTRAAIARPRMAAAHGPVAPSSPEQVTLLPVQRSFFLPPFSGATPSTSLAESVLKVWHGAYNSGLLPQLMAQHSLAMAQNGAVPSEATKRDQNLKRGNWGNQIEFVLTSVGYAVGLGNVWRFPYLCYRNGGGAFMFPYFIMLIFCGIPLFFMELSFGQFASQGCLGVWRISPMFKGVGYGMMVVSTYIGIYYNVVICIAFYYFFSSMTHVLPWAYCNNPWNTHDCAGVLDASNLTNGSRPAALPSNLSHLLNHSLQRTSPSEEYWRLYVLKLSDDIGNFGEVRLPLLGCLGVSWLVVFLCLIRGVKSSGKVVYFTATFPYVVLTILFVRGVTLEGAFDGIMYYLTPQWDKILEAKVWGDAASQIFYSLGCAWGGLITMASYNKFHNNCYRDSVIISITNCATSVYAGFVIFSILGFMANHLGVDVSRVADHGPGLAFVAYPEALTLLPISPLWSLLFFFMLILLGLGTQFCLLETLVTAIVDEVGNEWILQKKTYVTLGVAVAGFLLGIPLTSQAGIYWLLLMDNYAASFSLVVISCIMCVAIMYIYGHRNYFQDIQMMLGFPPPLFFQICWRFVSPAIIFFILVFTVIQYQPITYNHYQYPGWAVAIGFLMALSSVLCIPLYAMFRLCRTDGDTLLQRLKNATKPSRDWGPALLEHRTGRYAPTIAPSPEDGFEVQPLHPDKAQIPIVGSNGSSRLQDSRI
Assay: Study of glycine transportation ([14C]glycine uptake) in SK-N-MC cells expressing the native human transporter GlyT1
Format: cell-based
Conditions: 10 μM [14C]glycine, 10 min at 37° C., concentration which reduces by 50% the specific uptake of glycine, read-out: CI50 (the source's name)
Procedure: Study of Glycine Transportation in SK-N-MC Cells Expressing the Native Human Transporter GlyT1.
The uptake of [^14C]glycine is studied in SK-N-MC cells (human neuroepithelial cells) expressing the native human transporter GlyT1 by measuring the radioactivity incorporated in the presence or absence of the test compound. The cells are cultured as a monolayer for 48 hours in plates pretreated with 0.02% fibronectin. On the day of the experiment, the culture medium is removed and the cells are washed with Krebs-HEPES (4-(2-hydroxyethyl)piperazine-1-ethanesulphonic acid) buffer at pH 7.4. After preincubation for 10 minutes at 37° C. in the presence either of buffer (control batch) or of test compound at various concentrations or of 10 mM of glycine (determination of the non-specific uptake), 10 μM of [^14C]glycine (specific activity 112 mCi/mmol) are subsequently added. Incubation is continued for 10 min at 37° C. and the reaction is halted by washing twice with pH 7.4 Krebs-HEPES buffer. The radioactivity incorporated by the cells is then estimated after adding 100 μl of liquid scintillant and stirring for 1 h. Counting is carried out on a Microbeta Tri-Lux™ counter. The effectiveness of the compound is determined by the IC50, the concentration of the compound which reduces by 50% the specific uptake of glycine, defined by the difference in radioactivity incorporated by the control batch and the batch which received the 10 mM glycine.

IC50 [nM] | SMILES
140 | CSc1ncccc1C(=O)NC(c1ccccc1)C12CCCC(CN1)C2 (racemic) [Compound 2, N-[(6-azabicyclo[3.2.1]oct-5-yl)phenylmethyl](2-methylsulphanyl)nicotinamide]
130 | CSc1ncccc1C(=O)NC(c1ccc(F)cc1)C12CCCC(CN1)C2 (racemic) [Compound 8, N-[(6-Azabicyclo[3.2.1]oct-5-yl)(4-fluorophenyl)methyl]-2-methylsulfanyl-nicotinamide]
610 | O=C(NC(c1ccccc1)C12CCCC(CN1)C2)c1cccc2c1ccn2Cc1ccccc1 (centres unmarked) [Compound 6, [(6-Azabicyclo[3.2.1]oct-5-yl)phenylmethyl](1-benzyl)-1H-indole-4-carboxamide]
220 | O=C(NC(c1ccccc1)C12CCCC(CN1)C2)c1nccc(C(F)(F)F)c1Cl (racemic) [Compound 3, N-[(6-Azabicyclo[3.2.1]oct-5-yl)phenylmethyl](3-chloro-4-trifluoromethyl)pyridine-2-carboxamide]
170 | O=C(NC(c1cccc(C(F)(F)F)c1)C12CCCC(CN1)C2)c1nccc(C(F)(F)F)c1Cl (racemic) [Compound 11, N-[(6-Azabicyclo[3.2.1]oct-5-yl)(3-trifluoromethylphenyl)methyl](3-chloro-4-trifluoromethyl)pyridine-2-carboxamide]

Tested on: not given
Assay: not given
Conditions: not given

melting point [°C] | SMILES
158 to 160 | O=C(NC(c1ccccc1)C12CCCC(CN1)C2)c1nccc(C(F)(F)F)c1Cl (racemic) (as salt: HCl) [Compound 3, N-[(6-Azabicyclo[3.2.1]oct-5-yl)phenylmethyl](3-chloro-4-trifluoromethyl)pyridine-2-carboxamide]
234 to 236 | CSc1ncccc1C(=O)NC(c1ccc(F)cc1)C12CCCC(CN1)C2 (racemic) (as salt: HCl) [Compound 8, N-[(6-Azabicyclo[3.2.1]oct-5-yl)(4-fluorophenyl)methyl]-2-methylsulfanyl-nicotinamide]
250.4 to 251.4 | O=C(NC(c1cccc(C(F)(F)F)c1)C12CCCC(CN1)C2)c1nccc(C(F)(F)F)c1Cl (racemic) (as salt: HCl) [Compound 11, N-[(6-Azabicyclo[3.2.1]oct-5-yl)(3-trifluoromethylphenyl)methyl](3-chloro-4-trifluoromethyl)pyridine-2-carboxamide]
150 to 152 | Cn1cnc(C(=O)NC(c2ccccc2)C23CCCC(CN2)C3)c1 (racemic) [Compound 7, N-[(6-Azabicyclo[3.2.1]oct-5-yl)phenylmethyl](1-methyl)-1H-imidazole-4-carboxamide]
205 to 207 | CSc1ncccc1C(=O)NC(c1cccc(C)c1)C12CCCC(CN1)C2 (racemic) (as salt: HCl) [Compound 10, N-[(-6-Azabicyclo[3.2.1]oct-5-yl)-m-tolylmethyl]-2-methylsulfanylnicotinamide]
95 to 97 | O=C(NC(c1ccccc1)C12CCCC(CN1)C2)c1cc(Cl)sc1Cl (racemic) [Compound 1, N-[(6-Azabicyclo[3.2.1]oct-5-yl)phenylmethyl](2,5-dichloro)thiophene-3-carboxamide]
